According to patent publication US9073882B2, “Inhibitors of the renal outer medullary potassium channel” (Merck Sharp & Dohme Corp., priority 2010, dated 2015):
pIC50: −log10 of the molar value. Read-outs that look alike come from different tables or passages of the source.

Molecular target: hROMK1 (Kir1.1) (Homo sapiens (Human), UniProt P48048)
Assay: ^86Rb^+ Efflux Assay
Type: cell-based
Details: CHO-DHFR- cells stably expressing hROMK1 (Kir1.1)
[1] = value in parentheses at the end of each Example, read-out: IC50 in the ^86Rb^+ Efflux Assay
[2] = Table 1, read-out: ^86Rb^+ Efflux Assay IC50

Chain of hROMK1 (Kir1.1) (P48048 whole entry): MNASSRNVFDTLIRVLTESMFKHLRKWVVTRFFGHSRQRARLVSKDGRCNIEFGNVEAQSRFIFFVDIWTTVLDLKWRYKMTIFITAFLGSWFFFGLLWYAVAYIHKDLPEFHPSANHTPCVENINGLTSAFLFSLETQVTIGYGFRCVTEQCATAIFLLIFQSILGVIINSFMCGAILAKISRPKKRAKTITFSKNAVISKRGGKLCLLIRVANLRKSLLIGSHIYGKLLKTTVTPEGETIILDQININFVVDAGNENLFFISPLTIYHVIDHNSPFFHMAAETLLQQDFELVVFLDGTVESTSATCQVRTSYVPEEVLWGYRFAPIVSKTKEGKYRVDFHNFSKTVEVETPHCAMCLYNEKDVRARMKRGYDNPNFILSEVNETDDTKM

| SMILES | pIC50 [1] | pIC50 [2] |
| --- | --- | --- |
| COc1cc(CCN2CCN(CCc3ccc4c(c3)COC4=O)C(C(F)(F)F)C2)ccc1C#N (centres unmarked) [Example 51, 2-Methoxy-4-(2-{4-[2-(1-oxo-1,3-dihydro-2-benzofuran-5-yl)ethyl]-3-(trifluoromethyl)piperazin-1-yl}ethyl)benzonitrile] | 6.19 | – |
| COc1cc(C#N)ccc1CCN1CCN(CCc2ccc([N+](=O)[O-])cc2)CC1 [Example 31, 3-Methoxy-4-(2-{4-[2-(4-nitrophenyl)ethyl]piperazin-1-yl}ethyl)benzonitrile] | 6.52 | – |
| N#Cc1ccc2c(c1)CCCC2CN1CCN(CCc2ccc3c(c2)COC3=O)CC1 (centres unmarked) [Example 37, 5-({4-[2-(1-Oxo-1,3-dihydro-2-benzofuran-5-yl)ethyl]piperazin-1-yl}methyl)-5,6,7,8-tetrahydronaphalene-2-carbonitrile] | 6.34 | – |
| O=C1OCc2cc(CCN3CCN(C4CCc5cc6nonc6cc5C4)CC3)ccc21 (centres unmarked) [Example 33, 5-{2-[4-(5,6,7,8-Tetrahydronaphtho[2,3-c][1,2,5]oxadiazol-6-yl)piperazin-1-yl]ethyl}-2-benzofuran-1(3H)-one] | 6.68 | – |
| O=[N+]([O-])c1ccc(CCN2CCN(CCc3ccc([N+](=O)[O-])cc3)C(CF)C2)cc1 (centres unmarked) [Example 5, 2-(Fluoromethyl)-1,4-bis[2-(4-nitrophenyl)ethyl]piperazine] | 6.74 | – |
| COc1cc(CCN2CCN(CCc3cc(OC)c(C#N)cc3F)CC2)c(F)cc1C#N [Example 54, 4,4′-(Piperazine-1,4-diyldiethane-2,1-diyl)bis(5-fluoro-2-methoxybenzonitrile)] | 6.47 | – |
| c1cc2nonc2cc1CCN1CCN(C2CCc3cc(-n4cnnn4)ccc3C2)CC1 (centres unmarked) [Example 27, 5-(2-{4-[6-(1H-Tetrazol-1-yl)-1,2,3,4-tetrahydronaphthalen-2-yl]piperazin-1-yl}ethyl)-2,1,3-benzoxadiazole] | 6.01 | – |
| COc1cc(CCN2CCN(CCc3ccc4c(c3C)COC4=O)CC2)c(Cl)cc1C#N [Example 80, 5-Chloro-2-methoxy-4-(2-{4-[2-(4-methyl-1-oxo-1,3-dihydro-2-benzofuran-5-yl)ethyl]piperazin-1-yl}ethyl)benzonitrile] | 7.15 | – |
| O=[N+]([O-])c1ccc(CCN2CCN(CCc3ccc([N+](=O)[O-])cc3)C(C3CC3)C2)cc1 (centres unmarked) [Example 11, 2-Cyclopropyl-1,4-bis[2-(4-nitrophenyl)ethyl]piperazine] | 6.07 | – |
| N#Cc1cccc2c1CCC2CN1CCN(CCc2ccc3c(c2)COC3=O)CC1 (centres unmarked) [Example 34, 1-((4-(2-(1-Oxo-1,3-dihydroisobenzofuran-5-yl)ethyl)piperazin-1-yl)methyl)-2,3-dihydro-1H-indene-4-carbonitrile] | 6.57 | – |
| COc1cc(CCN2CCN(CCc3ccc4c(c3)CC(C)OC4=O)CC2)ccc1C#N (centres unmarked) [Example 57, 2-Methoxy-4-(2-{4-[2-(3-methyl-1-oxo-3,4-dihydro-1H-isochromen-6-yl)ethyl]piperazin-1-yl}ethyl)benzonitrile] | 7.01 | 7.01 |
| O=[N+]([O-])c1ccc(CCN2CCN(CCc3ccc([N+](=O)[O-])cn3)CC2)cc1 [Example 2, 1-[2-(4-Nitrophenyl)ethyl]-4-[2-(5-nitropyridin-2-yl)ethyl]piperazine] | 6.55 | – |
| N#Cc1ccc(CCN2CCN(CCc3ccc4c(c3)COC4=O)CC2)c(Cl)c1F [Example 85, 3-Chloro-2-fluoro-4-(2-{4-[2-(1-oxo-1,3-dihydro-2-benzofuran-5-yl)ethyl]piperazin-1-yl}ethyl)benzonitrile] | 6.89 | – |
| N#Cc1cc(F)c(CCN2CCN(CCc3ccc4c(c3)COC4=O)CC2)cc1F [Example 39, 2,5-Difluoro-4-[2-[4-[2-(1-oxo-3H-isobenzofuran-5-yl)ethyl]piperazin-1-yl]ethyl]benzonitrile] | 6.64 | – |
| COc1c(C#N)ccc(CCN2CCN(CCc3ccc4c(c3C)COC4=O)CC2)c1C [Example 84, 2-Methoxy-3-methyl-4-(2-{4-[2-(4-methyl-1-oxo-1,3-dihydro-2-benzofuran-5-yl)ethyl]piperazin-1-yl}ethyl)benzonitrile] | 7.11 | – |
| COc1cc(CCN2CCN(CCc3ccc([N+](=O)[O-])cc3)CC2)ccc1C#N [Example 22, 2-Methoxy-4-(2-{4-[2-(4-nitrophenyl)ethyl]piperazin-1-yl}ethyl)benzonitrile] | 7.28 | – |
| O=[N+]([O-])c1ccc(CCN2CC3CCC2CN3CCc2ccc([N+](=O)[O-])cc2)cc1 [Example 20, 2,5-Bis[2-(4-nitrophenyl)ethyl]-2,5-diazabicyclo[2.2.2]octane] | 6.68 | – |
| Cc1c(CCN2CCN(CCc3ccc4c(c3C)COC4=O)CC2)ccc(C#N)c1F [Example 82, 2-Fluoro-3-methyl-4-(2-{4-[2-(4-methyl-1-oxo-1,3-dihydro-2-benzofuran-5-yl)ethyl]piperazin-1-yl}ethyl)benzonitrile] | 7.20 | – |
| Cc1c(CCN2CCN(CCc3cc(F)c(C#N)cc3Cl)CC2)ccc2c1COC2=O [Example 79, 5-Chloro-2-fluoro-4-(2-{4-[2-(4-methyl-1-oxo-1,3-dihydro-2-benzofuran-5-yl)ethyl]piperazin-1-yl}ethyl)benzonitrile] | 7.32 | – |

| SMILES | pIC50 [1] | pIC50 [2] |
| --- | --- | --- |
| N#Cc1cc(Cl)c(CCN2CCN(CCc3ccc4c(c3)COC4=O)CC2)cc1F [Example 78, 5-Chloro-2-fluoro-4-(2-{4-[2-(1-oxo-1,3-dihydro-2-benzofuran-5-yl)ethyl]piperazin-1-yl}ethyl)benzonitrile] | 7.12 | – |
| CC1(C)CN(CCc2ccc([N+](=O)[O-])cc2)CCN1CCc1ccc([N+](=O)[O-])cc1 [Example 9, 2,2-Dimethyl-1,4-bis[2-(4-nitrophenyl)ethyl]piperazine] | 6.68 | 6.68 |
| Cc1cc(CCN2CCN(CCc3ccc([N+](=O)[O-])cc3)CC2)ccc1C#N [Example 24, 2-Methyl-4-(2-{4-[2-(4-nitrophenyl)ethyl]piperazin-1-yl}ethyl)benzonitrile] | 6.72 | – |
| COc1cc(C(C)CN2CCN(CCc3ccc4c(c3)COC4=O)CC2)ccc1C#N (centres unmarked) [Example 44, 2-Methoxy-4-[1-methyl-2-[4-[2-(1-oxo-3H-isobenzofuran-5-yl)ethyl]piperazin-1-yl]ethyl]benzonitrile] | 6.55 | – |
| Cc1c(CCN2CCN(CCc3ccc(C#N)c4ccccc34)CC2)ccc2c1COC2=O [Example 74, 4-(2-{4-[2-(4-Methyl-1-oxo-1,3-dihydro-2-benzofuran-5-yl)ethyl]piperazin-1-yl}ethyl)naphthalene-1-carbonitrile] | 6.80 | 6.80 |
| Cc1c(CCN2CCN(CCc3ccc4c(c3)COC4=O)CC2)ccc(C#N)c1F [Example 81, 2-Fluoro-3-methyl-4-(2-{4-[2-(1-oxo-1,3-dihydro-2-benzofuran-5-yl)ethyl]piperazin-1-yl}ethyl)benzonitrile] | 7.10 | – |
| COc1cc(CCN2CCN(CCc3ccc4c(c3C)COC4=O)CC2)c(F)cc1C#N [Example 53, 5-Fluoro-2-methoxy-4-(2-{4-[2-(4-methyl-1-oxo-1,3-dihydro-2-benzofuran-5-yl)ethyl]piperazin-1-yl}ethyl)benzonitrile] | 7.47 | – |
| CC(Cc1ccc([N+](=O)[O-])cc1)N1CCN(C(C)Cc2ccc([N+](=O)[O-])cc2)CC1 (centres unmarked) [Example 19, 1,4-Bis[1-methyl-2-(4-nitrophenyl)ethyl]piperazine] | 6.48 | – |
| O=[N+]([O-])c1ccc(CCN2CCN(CCc3ccc([N+](=O)[O-])cc3)C(CO)C2)cc1 (centres unmarked) [Example 13, {1,4-Bis[2-(4-nitrophenyl)ethyl]piperazin-2-yl}methanol] | 6.59 | – |
| COc1c(C#N)ccc(CCN2CCN(CCc3ccc4c(c3)COC4=O)CC2)c1Cl [Example 87, 3-Chloro-2-methoxy-4-(2-{4-[2-(1-oxo-1,3-dihydro-2-benzofuran-5-yl)ethyl]piperazin-1-yl}ethyl)benzonitrile] | 6.80 | – |
| N#Cc1c(F)cc(CCN2CCN(CCc3ccc([N+](=O)[O-])cc3)CC2)cc1F [Example 28, 2,6-Difluoro-4-(2-{4-[2-(4-nitrophenyl)ethyl]piperazin-1-yl}ethyl)benzonitrile] | 6.80 | – |
| COc1c(C#N)ccc(CCN2CCN(CCc3ccc4c(c3C)COC4=O)CC2)c1Cl [Example 88, 3-Chloro-2-methoxy-4-(2-{4-[2-(4-methyl-1-oxo-1,3-dihydro-2-benzofuran-5-yl)ethyl]piperazin-1-yl}ethyl)benzonitrile] | 7.08 | – |
| N#Cc1ccc2c(c1)OCCC2CN1CCN(CCc2ccc3c(c2)COC3=O)CC1 (centres unmarked) [Example 36, 4-({4-[2-(1-Oxo-1,3-dihydro-2-benzofuran-5-yl)ethyl]piperazin-1-yl}methyl)-3,4-dihydro-2H-chromene-7-carbonitrile] | 7.04 | – |
| O=[N+]([O-])c1ccc(CCN2C[C@@H]3C[C@H]2CN3CCc2ccc([N+](=O)[O-])cc2)cc1 [Example 10, (1S,4S)-2,5-Bis[2-(4-nitrophenyl)ethyl]-2,5-diazabicyclo[2.2.1]heptane] | 6.96 | 6.96 |
| COC(=O)CC1CN(CCc2ccc([N+](=O)[O-])cc2)CCN1CCc1ccc([N+](=O)[O-])cc1 (centres unmarked) [Example 21, Methyl{1,4-bis[2-(4-nitrophenyl)ethyl]piperazin-2-yl}acetate] | 6.41 | – |
| COc1cc(CCN2CCN(CCc3ccc4c(c3)COC4=O)CC2)c(F)cc1C#N [Example 52, 5-Fluoro-2-methoxy-4-(2-{4-[2-(1-oxo-1,3-dihydro-2-benzofuran-5-yl)ethyl]piperazin-1-yl}ethyl)benzonitrile] | 7.17 | – |
| N#Cc1ccc2c(c1)CC[C@H](N1CCN(CCc3ccc([N+](=O)[O-])cc3)CC1)C2 [Example 25, (6S)-6-{4-[2-(4-Nitrophenyl)ethyl]piperazin-1-yl}-5,6,7,8-tetrahydronaphthalene-2-carbonitrile] | 7.08 | – |
| N#Cc1ccc(CCN2CCN(CCc3ccc([N+](=O)[O-])cc3)CC2)cc1F [Example 32, 2-Fluoro-4-(2-{4-[2-(4-nitrophenyl)ethyl]piperazin-1-yl}ethyl)benzonitrile] | 6.62 | – |
